{"source": "patent US9944690B2", "about": "“Methods for controlling T cell proliferation” (BELLICUM PHARMACEUTICALS, INC., priority 2013, dated 2018)", "key": {"[1]": {"test_system": "T cells transduced with the retrovirus containing iMC (RV-172)", "assay": "AP1903-induced T cell activation by cytokine production (Bio-Plex 27-plex)", "format": "cell-based, human", "conditions": "iMC (RV-172) T cells, 10 nM AP1903, 24 hours, supernatant", "protocol": "5. To assess AP1903-dependent T cell activation of T cells, 1×10^5 non-transduced (NT) or T cells transduced with the control retrovirus (RV-171) or the retrovirus containing iMC(RV-172) were plated in triplicate in 96-well plates and cultured at 37° C. 5% CO2 with media alone, or media containing 10 nM AP1903.\n6. After 24 hours, the cells were gently mixed and the plate was centrifuged. Supernatant was then collected and plated into a Bio-Plex Human Cytokine/Chemokine 27-plex plate, which measures the following cytokines and chemokines: • a. Basic-FGF, G-CSF, GM-CSF, IFN-gamma, IL-1Ra, IL-1beta, IL-2, IL-4, IL-5, IL-6, […], IL-7, […], IL-9, IL-10, IL-12p70, IL-13, IL-15, IL-17RA, eotaxin, IP10, MCP-1, MIP-1alpha, MIP-1beta, PDGF-bb, RANTES, TNF-alpha and VEGF. • b. The cytokines and chemokines in the supernatants were subsequently measured and compared to standards in the plate using a Bio-Plex MAGPIX Multiplex Reader.\nT cells were stimulated with 10 nM AP1903 for 24 hours then supernatants were assayed for cytokine levels."}, "CAPAN-1-GFP tumor cells": {"test_system": "CAPAN-1-GFP tumor cells", "assay": "Co-culture of iMC-enabled T cells with CAPAN-1 tumor cells", "format": "cell-based, human", "conditions": "RV-172 T cells : CAPAN-1-GFP 5:1, 10 nM AP1903, 72 hours"}, "[2]": {"test_system": "T cells transduced with RV-172", "assay": "T cell proliferation in co-culture wells on AP1903 stimulation", "conditions": "RV-172 T cells with 10 nM AP1903, co-culture 72 hours, both donors", "procedure": "Non-transduced T cells or cells transduced with RV-171 (control vector) or RV-172 (iMC vector) were cultured at a 5:1 ratio of T cells to tumor cells in media supplemented with 50 U/ml IL-2, and either with or without 10 nM AP1903. Co-cultures were then incubated at 37° C. and 5% CO2 for 72 hours. Cultures were subsequently analyzed for the presence of GFP tumor cells by fluorescent microscopy and by harvesting the cultures with 0.25% trypsin/EDTA and measuring the frequency of GFP^+CD3^− tumor cells in the culture by flow cytometry.\nFollowing these initial observations, T cells and tumor cells were harvested and analyzed by flow cytometry to determine the frequency of remaining CAPAN-1 GFP^+ tumor cells."}, "[3]": {"conditions": "cited from earlier work"}, "cells": {"test_system": "cells", "assay": "Amount of AP1903 needed in vitro for effective signaling of cells", "format": "cell-based", "protocol": "The amount of AP1903 needed in vitro for effective signaling of cells is about 10-100 nM (MW: 1412 Da). This equates to 14-140 μg/L or ˜0.014-0.14 mg/kg (1.4-140 μg/kg). The dosage may vary according to the application, and may, in certain examples, be more in the range of 0.1-10 nM, or in the range of 50-150 nM, 10-200 nM, 75-125 nM, 100-500 nM, 100-600 nM, 100-700 nM, 100-800 nM, or 100-900 nM. Doses up to 1 mg/kg were well-tolerated in the Phase I study of AP1903 described above."}}, "note": "Entries after “also recorded” stand apart in the source; their conditions may differ. Like-named read-outs stand apart in the source and are kept apart here.", "data": [{"molecule": "CC[C@H](C(=O)N1CCCC[C@H]1C(=O)O[C@H](CCc1ccc(OC)c(OC)c1)c1cccc(OCC(=O)NCCNC(=O)COc2cccc([C@@H](CCc3ccc(OC)c(OC)c3)OC(=O)[C@@H]3CCCCN3C(=O)[C@@H](CC)c3cc(OC)c(OC)c(OC)c3)c2)c1)c1cc(OC)c(OC)c(OC)c1", "note": "(relative stereo) [AP1903, 2-Piperidinecarboxylic acid, 1-[(2S)-1-oxo-2-(3,4,5-trimethoxyphenyl)butyl]-, 1,2-ethanediylbis[imino(2-oxo-2,1-ethanediyl)oxy-3,1-phenylene[(1R)-3-(3,4-dimethoxyphenyl)propylidene]]ester, [2S-[1(R*),2R*[S*[S*[1(R*),2R*]]]]]-(9Cl)]", "values": [{"measurement": "Basic-FGF secretion", "setting": "[1]", "result": "did not appear to be induced"}, {"measurement": "G-CSF secretion", "setting": "[1]", "result": "did not appear to be induced"}, {"measurement": "GM-CSF secretion", "setting": "[1]", "result": "showed induction"}, {"measurement": "IFN-gamma secretion", "setting": "[1]", "result": "showed induction"}, {"measurement": "IL-1Ra secretion", "setting": "[1]", "result": "did not appear to be induced"}, {"measurement": "IL-1beta secretion", "setting": "[1]", "result": "showed induction"}, {"measurement": "IL-2 secretion", "setting": "[1]", "result": "did not appear to be induced"}, {"measurement": "IL-4 secretion", "setting": "[1]", "result": "showed induction"}, {"measurement": "IL-5 secretion", "setting": "[1]", "result": "showed induction"}, {"measurement": "IL-6 secretion", "setting": "[1]", "result": "showed induction"}, {"measurement": "IL-7 secretion", "setting": "[1]", "result": "did not appear to be induced"}, {"measurement": "IL-8 secretion", "setting": "[1]", "result": "showed induction"}, {"measurement": "IL-9 secretion", "setting": "[1]", "result": "did not appear to be induced"}, {"measurement": "IL-10 secretion", "setting": "[1]", "result": "did not appear to be induced"}, {"measurement": "IL-12p70 secretion", "setting": "[1]", "result": "showed induction"}, {"measurement": "IL-13 secretion", "setting": "[1]", "result": "showed induction"}, {"measurement": "IL-15 secretion", "setting": "[1]", "result": "did not appear to be induced"}, {"measurement": "IL-17RA secretion", "setting": "[1]", "result": "did not appear to be induced"}, {"measurement": "IP10 secretion", "setting": "[1]", "result": "showed induction"}, {"measurement": "MCP-1 secretion", "setting": "[1]", "result": "did not appear to be induced"}, {"measurement": "MIP-1alpha secretion", "setting": "[1]", "result": "showed induction"}, {"measurement": "MIP-1beta secretion", "setting": "[1]", "result": "showed induction"}, {"measurement": "PDGF-bb secretion", "setting": "[1]", "result": "did not appear to be induced"}, {"measurement": "RANTES secretion", "setting": "[1]", "result": "showed induction"}, {"measurement": "TNF-alpha secretion", "setting": "[1]", "result": "showed induction"}, {"measurement": "VEGF secretion", "setting": "[1]", "result": "did not appear to be induced"}, {"measurement": "eotaxin secretion", "setting": "[1]", "result": "did not appear to be induced"}, {"measurement": "GFP+ tumor cells by flow cytometry", "setting": "CAPAN-1-GFP tumor cells", "result": "reduction of GFP^+ tumor cells; also recorded: induces T cell killing of tumor cells"}, {"measurement": "GFP+ tumor cells by fluorescent microscopy", "setting": "CAPAN-1-GFP tumor cells", "result": "very few viable GFP^+ tumor cells; also recorded: elimination of GFP^+ tumor cells"}, {"measurement": "T cell proliferation / T cell blast activation (inspection, microscopy)", "setting": "[2]", "result": "proliferating; also recorded: activation of T cell blasts"}, {"measurement": "relation of AP1903 plasma levels to dose", "setting": "[3]; 0.01, 0.05, 0.1, 0.5 and 1.0 mg/kg IV over 2 hours", "result": "directly proportional to dose"}, {"measurement": "plasma level as % of maximal concentration", "setting": "[3]; 0.5 hours post-dose", "result": "approximately 18%"}, {"measurement": "plasma level as % of maximal concentration", "setting": "[3]; 2 hours post-dose", "result": "~7", "unit": "%"}, {"measurement": "plasma level as % of maximal concentration", "setting": "[3]; 10 hours post-dose", "result": "~1", "unit": "%"}, {"measurement": "well-tolerated doses", "setting": "[3]; Phase I study", "result": "up to 1 mg/kg"}, {"measurement": "mean Cmax", "setting": "[3]; plasma, single doses over the 0.01-1.0 mg/kg dose range infused IV over 2 hours, 24 healthy volunteers", "result": "10 to 1275", "unit": "ng/mL"}, {"measurement": "amount needed for effective signaling, as dose", "setting": "cells; converted from 14-140 μg/L", "result": "14 to 140", "unit": "µg/kg"}, {"measurement": "amount needed for effective signaling, as mass concentration", "setting": "cells; converted with MW 1412 Da", "result": "14 to 140", "unit": "µg/L"}, {"measurement": "amount needed for effective signaling, as dose", "setting": "cells; figure in brackets after the mg/kg range", "result": "1.4 to 140", "unit": "µg/kg"}, {"measurement": "amount needed in vitro for effective signaling of cells", "setting": "cells; in vitro", "result": "10 to 100", "unit": "nM"}]}]}
